Read-outs that look alike come from different tables or passages of the source.
Experiments:
Assay type in all cases: biochemical
[1] = biological target: T1, bovine heart complex II (succinate-ubiquinone oxidoreductase) (Bos taurus, UniProt P35720+Q3T189+Q95123); assay: Inhibition of succinate dehydrogenase activity of bovine heart complex II (DCIP reduction)
T1 construct: of the bovine heart, mitochondria prepared according to the method of S. Takamiya et al; from tissue; host or cells: bovine heart mitochondria
T1 sequence (P31039 44-665 partner): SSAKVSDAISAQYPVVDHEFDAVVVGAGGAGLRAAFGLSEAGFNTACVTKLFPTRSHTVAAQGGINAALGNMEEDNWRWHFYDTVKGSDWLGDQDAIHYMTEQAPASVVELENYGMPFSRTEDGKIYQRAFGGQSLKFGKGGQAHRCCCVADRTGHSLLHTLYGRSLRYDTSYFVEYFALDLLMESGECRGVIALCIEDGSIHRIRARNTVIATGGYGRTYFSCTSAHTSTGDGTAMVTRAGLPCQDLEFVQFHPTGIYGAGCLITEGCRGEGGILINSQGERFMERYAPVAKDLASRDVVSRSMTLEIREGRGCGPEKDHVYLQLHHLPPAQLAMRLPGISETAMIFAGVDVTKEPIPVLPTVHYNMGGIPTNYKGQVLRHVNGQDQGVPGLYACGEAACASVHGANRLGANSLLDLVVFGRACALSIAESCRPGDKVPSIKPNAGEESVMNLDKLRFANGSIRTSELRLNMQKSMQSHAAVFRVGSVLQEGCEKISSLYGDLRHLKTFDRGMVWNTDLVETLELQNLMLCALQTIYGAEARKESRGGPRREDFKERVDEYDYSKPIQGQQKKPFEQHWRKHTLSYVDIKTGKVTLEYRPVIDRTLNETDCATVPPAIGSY
T1 sequence (Q3T189 29-280): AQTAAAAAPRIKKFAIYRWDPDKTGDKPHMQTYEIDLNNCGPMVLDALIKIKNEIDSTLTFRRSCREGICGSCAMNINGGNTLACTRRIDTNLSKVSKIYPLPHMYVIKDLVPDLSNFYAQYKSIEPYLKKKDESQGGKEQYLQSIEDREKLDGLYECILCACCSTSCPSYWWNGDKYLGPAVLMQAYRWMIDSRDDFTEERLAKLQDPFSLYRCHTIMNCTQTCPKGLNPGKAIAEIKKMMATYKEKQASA
T1 sequence (P35720 30-169): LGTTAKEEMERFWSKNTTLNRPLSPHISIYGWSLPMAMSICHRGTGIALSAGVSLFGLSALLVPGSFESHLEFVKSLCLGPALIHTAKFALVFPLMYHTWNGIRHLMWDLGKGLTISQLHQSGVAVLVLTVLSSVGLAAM
T1 sequence (Q95123 56-158): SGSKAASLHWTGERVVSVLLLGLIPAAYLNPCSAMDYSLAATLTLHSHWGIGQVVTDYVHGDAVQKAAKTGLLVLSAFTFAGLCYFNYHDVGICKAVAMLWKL
Experimental: With regard to the complex II (succinate-ubiquinone oxidoreductase) of the bovine heart, mitochondria prepared according to the method of S. Takamiya et al. (Developmental changes in the respiratory chain of Ascaris mitochondria, Biochim. Biophys. Acta, 1141, 65-71, 1993) were used. Succinate dehydrogenase activity of the complex II was measured by changes of maximum absorption, which was specific to the electron acceptor (DCIP), from oxidized form of 2,6-dichlorophenolindophenol (DCIP, Sigma Inc.) to reduced form with the addition of succinate.
With regard to the complex II of the bovine heart, mitochondria prepared according to the same method described in the referential example 1 was used. Succinate dehydrogenase activity of the complex II was measured by changes of maximum absorption, which was specific to the electron acceptor (DCIP), from oxidized form of DCIP to reduced form with the addition of succinate. […] Reaction rate was measured by that the formation rate of reduced form of DCIP (amM^−1 1 cm^−1: 21) which accepted electron from succinate was measured at absorption changes of 600 nm. Activity was indicated by molar numbers of DCIP reduced per minute. Potassium cyanide, final concentration of 10 mM, was added due to necessity for prevention of leakage of reduction activity by inhibiting terminal oxidase.
With regard to the complex II (succinate-ubiquinone oxidoreductase) of the bovine heart, mitochondria prepared according to the same method described in the referential example 1 was used. Succinate dehydrogenase activity of the complex II was measured by changes of maximum absorption, which was specific to the electron acceptor (DCIP), from oxidized form of DCIP to reduced form with the addition of succinate. […] Reaction rate was measured by that the formation rate of reduced form of DCIP (amM^−1 1 cm^−1: 21) which accepted electron from succinate was measured at absorption changes of 600 nm. Activity was indicated by molar numbers of DCIP reduced per minute. Potassium cyanide, final concentration of 10 mM, was added due to necessity for prevention of leakage of reduction activity by inhibiting terminal oxidase.
With regard to the complex II of the bovine heart, mitochondria prepared according to the same method described in the referential example 1 was used. Succinate dehydrogenase activity of the complex II was measured by changes of maximum absorption, which was specific to the electron acceptor (DCIP), from oxidized form of DCIP to reduced form with the addition of succinate.

[2] = biological target: T2, Ascaris suum complex II (Ascaris suum, UniProt O44074+P92506+P92507); assay: Inhibition of succinate dehydrogenase activity of Ascaris suum complex II (DCIP reduction)
T2 construct: the purified complex II prepared according to the method of F. Saruta et al; from tissue; complex II purified by the method of Saruta et al. 1995
T2 sequence (Q33862 19-645): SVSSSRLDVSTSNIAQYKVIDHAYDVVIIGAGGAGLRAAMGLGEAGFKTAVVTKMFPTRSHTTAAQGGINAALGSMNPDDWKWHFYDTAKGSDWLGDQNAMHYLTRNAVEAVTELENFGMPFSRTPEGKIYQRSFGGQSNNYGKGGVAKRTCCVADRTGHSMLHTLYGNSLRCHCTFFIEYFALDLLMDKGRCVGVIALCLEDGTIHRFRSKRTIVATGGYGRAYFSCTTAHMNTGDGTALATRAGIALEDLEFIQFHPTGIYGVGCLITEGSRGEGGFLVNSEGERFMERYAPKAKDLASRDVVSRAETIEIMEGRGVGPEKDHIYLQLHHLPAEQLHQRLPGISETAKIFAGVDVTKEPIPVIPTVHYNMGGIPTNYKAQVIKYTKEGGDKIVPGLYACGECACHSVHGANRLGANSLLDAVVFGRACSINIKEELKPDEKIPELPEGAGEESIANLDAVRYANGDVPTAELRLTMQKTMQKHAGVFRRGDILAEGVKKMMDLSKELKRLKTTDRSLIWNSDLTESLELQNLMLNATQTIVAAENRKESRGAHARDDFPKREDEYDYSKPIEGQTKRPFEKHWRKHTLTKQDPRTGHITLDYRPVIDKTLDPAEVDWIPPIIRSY
T2 sequence (P92506 32-188): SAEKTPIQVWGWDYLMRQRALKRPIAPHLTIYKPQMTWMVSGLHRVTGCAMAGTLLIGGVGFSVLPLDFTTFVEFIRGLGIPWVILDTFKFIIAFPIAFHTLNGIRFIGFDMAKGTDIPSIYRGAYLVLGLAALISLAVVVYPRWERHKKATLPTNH
T2 sequence (O44074 22-282): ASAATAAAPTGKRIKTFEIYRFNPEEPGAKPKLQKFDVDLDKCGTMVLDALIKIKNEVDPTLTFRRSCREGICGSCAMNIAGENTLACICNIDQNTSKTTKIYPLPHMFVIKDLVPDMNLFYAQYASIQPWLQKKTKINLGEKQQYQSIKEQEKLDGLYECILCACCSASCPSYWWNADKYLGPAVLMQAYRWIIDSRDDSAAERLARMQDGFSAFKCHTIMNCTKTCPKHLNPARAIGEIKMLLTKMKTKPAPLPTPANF
T2 sequence (P92507 26-156): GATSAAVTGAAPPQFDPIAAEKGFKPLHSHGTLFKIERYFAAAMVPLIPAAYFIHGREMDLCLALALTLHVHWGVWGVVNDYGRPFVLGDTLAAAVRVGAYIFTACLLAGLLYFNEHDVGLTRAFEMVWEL
Experimental: With regard to the complex II of the Ascaris suum, the purified complex II prepared according to the method of F. Saruta et al. [Stage-specific Isoforms of Complex II (Succinate-Ubiquinone Oxidoreductase) in Mitochondria from the Parasitic Nematode, Ascaris suum: J. Biol. Chem. 270, 928-932, 1995] was used. Succinate dehydrogenase activity of the complex II was measured by changes of maximum absorption, which was specific to the electron acceptor (DCIP), from oxidized form of DCIP to reduced form with the addition of succinate.
(§1) Namely, ubiquinone-2 and DCIP were added to the level of 100 ìM and 70 ìM, respectively, into 50 mM phosphate buffer (pH 7.5); atpenin A4 was added therein; further the complex II was added thereto; then potassium succinate with final concentration of 10 mM was added; and the reaction was started at 25° C. Reaction rate was measured by that the formation rate of reduced form of DCIP (amM^−1 1 cm^−1: 21) which accepted electron from succinate was measured at absorption changes of 600 nm. Activity was indicated by molar numbers of DCIP reduced per minute. Potassium cyanide, final concentration of 10 mM, was added due to necessity for prevention of leakage of reduction activity by inhibiting terminal oxidase.
(§2) With regard to the complex II of the Ascaris suum, the purified complex II prepared according to the same method of example 3 was used. Succinate dehydrogenase activity of the complex II was measured by changes of maximum absorption, which was specific to the electron acceptor (DCIP), from oxidized form of DCIP to reduced form with the addition of succinate. […] Reaction rate was measured by that the formation rate of reduced form of DCIP (amM^−1 1 cm^−1: 21) which accepted electron from succinate was measured at absorption changes of 600 nm. […]
as §2
(§3) With regard to the complex II of the Ascaris suum, the purified complex II prepared according to the same method of example 3 was used. Succinate dehydrogenase activity of the complex II was measured by changes of maximum absorption, which was specific to the electron acceptor (DCIP), from oxidized form of DCIP to reduced form with the addition of succinate. […]

[3] = biological target: T3, rat liver complex II (Rattus norvegicus, UniProt P21913+Q641Z9+Q6PCT8); assay: Inhibition of succinate dehydrogenase activity of rat liver complex II (DCIP reduction)
T3 construct: from tissue; host or cells: rat liver mitochondria
T3 sequence (Q920L2 35-656 partner): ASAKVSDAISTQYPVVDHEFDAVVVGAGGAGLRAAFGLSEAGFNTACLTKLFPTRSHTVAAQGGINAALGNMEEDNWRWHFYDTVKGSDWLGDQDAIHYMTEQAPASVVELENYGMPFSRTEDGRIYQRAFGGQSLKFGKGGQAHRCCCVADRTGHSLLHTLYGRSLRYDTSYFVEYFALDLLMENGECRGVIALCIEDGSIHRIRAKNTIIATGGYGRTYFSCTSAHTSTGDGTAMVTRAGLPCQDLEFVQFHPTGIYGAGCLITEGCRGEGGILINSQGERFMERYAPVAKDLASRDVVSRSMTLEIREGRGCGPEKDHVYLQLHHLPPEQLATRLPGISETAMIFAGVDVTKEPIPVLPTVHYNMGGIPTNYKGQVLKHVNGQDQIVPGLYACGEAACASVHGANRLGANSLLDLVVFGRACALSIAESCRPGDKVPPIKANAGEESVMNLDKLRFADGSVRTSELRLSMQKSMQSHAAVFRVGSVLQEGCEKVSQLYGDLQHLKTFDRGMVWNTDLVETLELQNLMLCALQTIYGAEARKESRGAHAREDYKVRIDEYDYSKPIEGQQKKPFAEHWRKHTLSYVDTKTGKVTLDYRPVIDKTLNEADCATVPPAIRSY
T3 sequence (P21913 31-282): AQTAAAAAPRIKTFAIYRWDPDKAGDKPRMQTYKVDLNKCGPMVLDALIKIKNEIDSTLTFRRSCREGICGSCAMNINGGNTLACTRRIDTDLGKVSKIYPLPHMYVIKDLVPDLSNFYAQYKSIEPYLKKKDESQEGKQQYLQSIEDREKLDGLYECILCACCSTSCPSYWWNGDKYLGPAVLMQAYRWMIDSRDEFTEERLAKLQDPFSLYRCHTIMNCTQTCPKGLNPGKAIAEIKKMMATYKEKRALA
T3 sequence (Q641Z9 30-169 limits assumed): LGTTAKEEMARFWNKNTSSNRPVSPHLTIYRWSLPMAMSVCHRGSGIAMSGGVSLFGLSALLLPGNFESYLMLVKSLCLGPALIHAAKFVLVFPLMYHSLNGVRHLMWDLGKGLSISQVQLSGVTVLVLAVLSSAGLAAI
T3 sequence (Q6PCT8 57-159): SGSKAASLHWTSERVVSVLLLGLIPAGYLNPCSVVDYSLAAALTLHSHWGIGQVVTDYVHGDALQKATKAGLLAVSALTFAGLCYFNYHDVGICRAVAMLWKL
Experimental: as §1, with “With regard to the complex II of the rat liver, mitochondria prepared according to the same method described in the referential example 1 was used. Succinate dehydrogenase activity of the complex II was measured by changes of maximum absorption, which was specific to the electron acceptor (DCIP), from oxidized form of DCIP to reduced form with the addition of succinate. Namely,” for “Namely,”
as §2, with “the rat liver, mitochondria” for “the Ascaris suum, the purified complex II”, “method described in the referential” for “method of”, “example 1” for “example 3”
as §2, with “the rat liver, mitochondria” for “the Ascaris suum, the purified complex II”, “method described in the referential” for “method of”, “example 1” for “example 3”
as §3, with “the rat liver, mitochondria” for “the Ascaris suum, the purified complex II”, “method described in the referential” for “method of”, “example 1” for “example 3”

[4] = bovine heart mitochondria, ubiquinone-2, DCIP, 10 mM succinate, pH 7.5, 25° C., read-out: 50% inhibitory concentration of the complex II (IC50), Bovine heart
[5] = purified Ascaris suum complex II, ubiquinone-2, DCIP, 10 mM succinate, pH 7.5, 25° C., read-out: 50% inhibitory concentration of the complex II (IC50), Ascaris suum
[6] = rat liver mitochondria, ubiquinone-2, DCIP, 10 mM succinate, pH 7.5, 25° C., read-out: 50% inhibitory concentration of the complex II (IC50), Rat liver

Row | SMILES | IC50 [1, 4] | IC50 [2, 5] | IC50 [3, 6] | IC50 [2] | IC50 [3] | IC50 [1]
1 | O=C(CC(=O)C(F)(F)F)c1cccs1 [Thenoyltrifluoro Aceton, thenoyltrifluoroacetone, reference compound] | 5.8 µM |  |  |  |  | 
2 | C/C=C/CC(C)C(=O)c1c(O)c(OC)c(OC)[nH]c1=O (centres unmarked) [Harzianopyridone, harzianopyridone] | 0.017 µM | 2 µM | 0.2 µM |  |  | 
3 | CCC(C)CC(C)C(=O)c1c(O)nc(OC)c(OC)c1O (centres unmarked) [Atpenin B, atpenin B] | 0.01 µM | 0.05 µM | 0.02 µM |  |  | 
4 | COc1[nH]c(=O)c(C(=O)C(C)CC(C)C(Cl)CCl)c(O)c1OC (centres unmarked) [Atpenin A5, atpenin A5] |  |  |  | 0.032 µM | 0.0037 µM | 0.0036 µM
5 | CC1=C(C(=O)Nc2ccccc2)SCCO1 [Carboxin, carboxin, reference compound] | 1.1 µM |  |  |  |  | 
6 | COc1nc(O)c(C(=O)C(C)CC(C)C(C)Cl)c(O)c1OC (centres unmarked) [Atpenin A4, atpenin A4] | 0.011 µM | 0.22 µM | 0.024 µM |  |  | 
